Assay results as given in a melting point compilation (Tetko et al.; mined from patent text by program, amines drawn as free bases though some values may be those of a salt).

melting point [°C]	Structure (SMILES)
164 to 166	CCCCCc1cc2c(cc1/C=C/C=C/C(C)=C/C(=O)O)C(C)(C)CCC2(C)C
234 to 236	Cn1nc(C(=O)O)c(=O)n(-c2ccc(Cl)cc2)c1=O
192 to 193	N#CCC1OC(n2cnc3c(NN4CCCCC4)nc(Cl)nc32)C(O)C1O (centres undefined)
167 to 171	COc1ccc(C(=O)Nc2ccccc2)cc1NCc1cccc(C(F)(F)F)c1
243 to 245	Cc1nc(N=Nc2ccccc2)c(O)c(=O)[nH]1
226 to 228	COc1ccc2c(c1OC)C=NCN2CCC(=O)O
> 210	COc1ccc(CNC(=O)c2cn3c(=O)n(Cc4ccc(C(=O)O)cc4)c(=O)c(C)c3s2)cc1
154	O=CN[C@H]1CC[C@H](CCN2CCN(c3nccc4c3OCC4)CC2)CC1
150 to 151	Nc1nc(SCc2ccccc2)c2ncn(C3CC(F)C(CO)O3)c2n1 (centres undefined)
139 to 140	CC[C@@H](NC(=O)N1CC(=O)NC[C@H](Cc2cc(Cl)ccc2OC)C1=O)c1ccc(C(=O)O)c(N)c1
215 to 216	Cc1c(C(=O)Nc2ccc(N3CCC(N4CCOCC4)CC3)c(C#N)c2)cnn1-c1cccc(C(F)(F)F)c1
163 to 165	CCOC(=O)Cn1cc(Cc2cccc([N+](=O)[O-])c2)c2ccccc21
150 to 151	COc1nc(C)cnc1NS(=O)(=O)c1cccnc1-c1ccc(C(C)(C)C)cc1
> 290	CCCn1c(=O)[nH]c(=S)c2[nH]c(C=Cc3ccccc3)nc21
159 to 161	CCOC(=O)NC(=S)Nc1ccc(Br)cn1
161 to 162	C#C[C@H]1CC[C@H](C(=O)O)CC1
167 to 168	CCOC(=O)Cn1c(=O)c2cc(OC)ccc2n(Cc2ccc(Cl)cc2Cl)c1=O
158 to 160	CCc1ccccc1-c1nc2c3ccccc3ccn2c1N=Cc1ccc(C)cc1
270 to 273	CCn1cc(C(=O)O)c(=O)c2cc(F)c(N3CCSC3)cc21
> 250	COc1ccc(C(=O)Nc2c(Cl)cncc2Cl)c2c1oc1ccc(Cl)cc12
157 to 161	CCOCc1nc2c(N)nc3cc(-c4cccnc4)ccc3c2n1CCCCNC(=O)c1ccc(C(OCCN(C)C)c2ccccc2)cc1 (centres undefined)
183 to 184	CC(C)(C)c1cc(-c2ccc(NC(=O)COCC(=O)O)cc2)cc(C(C)(C)C)c1O
145 to 146	CCOc1csc(N)c1C#N
191 to 192	O=C(NCc1ccccn1)Nc1cc(N2CC3(CCCCC3)CC2=O)ccn1

melting point [°C]	Structure (SMILES)
107 to 108	CCCc1nc2cccc(C(=S)OC)c2n1Cc1ccc(-c2ccccc2C#N)cc1
223 to 225	COc1cc2nc(N3CCN(C(=O)C4CCCCC4)CC3)nc(N)c2cc1OC
133	CC(C)C1(C)Cc2cc(OCC#N)c(Cl)c(Cl)c2C1=O (centres undefined)
246 to 249	COc1cc2nc(N)nc(-c3cccc(Br)c3)c2cc1OC
184 to 187	O=C(O)c1ccccc1C(=O)c1ccc(N2CCOCC2)cc1O
130 to 132	C=CCOc1nc(N)nc(-c2ccccc2)c1-c1ccc(=O)n(C(C)C)n1
166 to 167	O=S1(=O)NC(C2CCCCC2)Nc2c(Br)cc(Br)cc21 (centres undefined)
174	Cc1cc(C(O)(C(F)(F)F)C(F)(F)F)c2ccccc2c1NS(C)(=O)=O
167 to 170	O=C(O)C1CCCCC1C(=O)CCSSCCC(=O)C1CCCCC1C(=O)O (centres undefined)
216	O=C(NNC1NS(=O)(=O)c2ccccc21)Oc1ccccc1 (centres undefined)
242 to 243	CC(=O)Nc1ccc(C2=NN(C(=O)C3CC3)C(C)Cc3cc4c(cc32)OCO4)cc1 (centres undefined)
189	CC1(C)Oc2ccc([N+](=O)[O-])cc2C(n2ccccc2=O)=C1CNC(=O)C(F)(F)F
130 to 131	O=Cn1cc(Cl)c(-c2cccc(Cl)c2Cl)c1
106 to 107	COCCOc1ccc(CSc2cnn(C(C)(C)C)c(=O)c2Cl)cc1
57	CC(=O)Oc1cc(COC(=O)c2ccccc2)cnc1C
323	CNc1nc(Nc2ccc(S(C)(=O)=O)cc2)ncc1[N+](=O)[O-]
123 to 125	CCOC(=O)C(Cl)N=Nc1ccccc1C(=O)c1ccccn1 (centres undefined)
100 to 101	CC1(O)CC(=O)OC(CCCc2ccc(OCc3ccccc3)cc2)C1Br (centres undefined)
295 to 297	CSC1=NC2=NC3=C(CSCC3=O)CN2N1
193 to 194	Cc1c(-c2ccc(C#N)cc2)c(C#N)c(C2CC2)n1Cc1cnc(Cl)c(CO)c1
164 to 165	CCc1onc(-c2ccc(Cl)cc2)c1CCC(=O)O
114 to 120	O=C(O)C1=Cc2cc(C(O)C(F)(F)F)ccc2OC1C(F)(F)F (centres undefined)
268 to 269	CC(C)S(=O)(=O)c1cc(OCc2ccccc2F)c2[nH]nc(Nc3nccs3)c2c1
103 to 106	Oc1ccc2sc(-c3ccc(OCCN4CCCC4)cc3)c(Cc3ccc(OC4CCCCC4N4CCCCC4)cc3)c2c1 (centres undefined)

melting point [°C]	Structure (SMILES)
55 to 57	CC1(C)OC(C=Cc2ccc(F)cc2)=CC1=O
245 to 246	O=C1NC(=O)C2(N1)C(=O)N(Cc1ccc(Cl)c(Cl)c1)c1ccc([N+](=O)[O-])cc12 (centres undefined)
87 to 88	CCCCc1cc2cc(NS(C)(=O)=O)ccn2c1C(=O)c1ccc(OCCCN(CCCC)CCCC)cc1
180 to 183	O=C(O)c1ccccc1Nc1ccc(O)c(Cl)c1
229 to 230	Cc1nn(C)c2nc3n(c(=O)c12)CCS3
116 to 117	COc1ccc([C@@H](O)[C@@H](N)Cc2ccc(C(F)(F)F)cc2)cc1 (racemic)
234 to 236	Cc1c(-c2ccc(O)cc2)sc(C=O)c1-c1ccc(O)c(Cl)c1
98 to 100	OCC(O)Cn1ncc2c(N(Cc3cccc(Cl)c3)C3CCCC3)ncnc21 (centres undefined)
193 to 194	CCCn1nc2c(N)nc3ccccc3c2c1NCC
257 to 262	CCCCNS(=O)(=O)c1ccc2[nH]c(=O)c(=O)[nH]c2c1
108 to 110	COC(=O)c1cc(Cl)c(Oc2ccc(OC)c(Cc3ccc(F)cc3)c2)c(Cl)c1
163 to 166	COc1cc(C(=O)NC2CN(C)N(C)C2)cc(OC)c1OC
97	CCC(O)(CC)c1ccc(-c2ccc(OCc3ccc(CO)c(CO)c3)cc2)c(C)c1
112 to 114	OC(=S)c1cc(C(F)(F)F)c(Cl)cc1Cl
165 to 167	CCOC(=O)c1cn(C2CC2)c2c(CSCC)c(N3CCOCC3)c(F)cc2c1=O
140 to 141	COc1ccc(-c2cc(F)c(F)cc2-c2ccc(S(C)(=O)=O)cc2)cc1OC
154 to 156	Cc1ccc(-c2cn(C)cc(-c3cccc(C(F)(F)F)c3)c2=O)cc1
88 to 89	Cc1onc(-c2ccccc2)c1C(=O)N(CCN(C)C)c1ccccc1
133 to 135	CS(=O)(=O)CC(=O)NCCn1ccc2ncnc(Nc3ccc(Oc4cccc(OC(F)(F)F)c4)c(Cl)c3)c21
298 to 300	CCOCCn1cc2c(C3C(=O)Nc4ccc(Br)cc43)nc(NCC(C)O)nc2n1 (centres undefined)
85 to 87	COc1ccc(C=CC2=NN(C(C)=O)C(C)Cc3cc(OC)c(OC)cc32)c(OC)c1 (centres undefined)
216 to 218	COc1ccc2c(c1)C(=O)Nc1ccccc1N2
258 to 259	CC1(C)CCCC(C)(C)N1Cc1ccc2cc(NC(=O)c3ccc(-c4ccc(Cl)cc4)nc3)ccc2n1
234 to 236	O=C1OC(=O)c2c1cccc2N1C(=O)CCCC1=O

melting point [°C]	Structure (SMILES)
144 to 146	CNC(=O)c1cnn(-c2ccc(OC)cc2)c1Cl
102 to 104	COC(=O)c1ccc(S(C)(=O)=O)c(-c2cc(C(C)C)no2)c1
168 to 170	Nc1nc(=O)n(CC2CCCO2)cc1F (centres undefined)
160 to 161	CC=C1C(=O)N2C(C(=O)OCc3ccc([N+](=O)[O-])cc3)=C(SCCNC(=O)OCc3ccc([N+](=O)[O-])cc3)CC12 (centres undefined)
120 to 122	CCOC(=O)c1ccc(N2CCC(NCC(O)COc3ccc(N)nc3)CC2)nc1 (centres undefined)
230 to 231	COc1cc(C=CC=C2SC(=O)NC2=O)ccc1OCc1coc(-c2ccccc2)n1
62 to 65	Clc1ccc(N=Cc2ccccc2)cc1Cl
106 to 108	Clc1ccc(C2=CCCc3cc(Cl)c(Cl)cc32)cc1
116 to 117	O=C1C(Cl)=C(c2ccccc2)C(=O)N1c1ccc(Cl)cc1
200	O=c1[nH]c2ccc(CCN3CCN(c4cc(O)cc5cccnc45)CC3)cc2o1
211 to 217	CC(C)Oc1ccc(-n2c(-c3ccc(C(=O)O)cc3)c(C(=O)O)c3cc(Oc4cccc(Cl)c4)ccc32)cc1
83 to 85	CONCc1cc(-n2c(=O)cc(C(F)(F)F)n(C)c2=O)ccc1Cl
136 to 138	O=[N+]([O-])C=C1SCCN1Cc1ccccc1
106 to 108	C#CC[C@H]1CC[C@H](CO)CC1
95 to 97	CCOC(=O)C(=O)c1ccc(OCCCn2c(=O)c3ccccc3c3ccccc32)cc1
144	O=C(N=c1sc2cc(OC(F)(F)F)ccc2n1CCO)C(F)(F)F
232 to 234	CCn1cc(C(=O)O)c(=O)cc1-c1ccc(OC)c(OC)c1
70 to 73	CCCCCCCCCCCc1ccc(F)c(-c2nc(-c3c(F)cccc3F)nn2C)c1
273 to 275	Cc1ccc(NC(=O)NCc2ccc3c(c2)CN(C2CCC(=O)NC2=O)C3=O)cc1O (centres undefined)
149 to 150	C=CCOC(=O)Nc1sc(-c2cccc(Cl)c2)cc1C(=O)OC
225 to 226	COc1cc2nc(-c3n[nH]cc3NC(=O)C3CC3)[nH]c2cc1Cl
180 to 183	CC(C)C1Sc2ccccc2NC(=O)C1N (centres undefined)

Structure (SMILES)	melting point [°C]
N#Cc1nn(-c2c(Cl)cc(C(F)(F)F)cc2Cl)cc1C#CBr	166 to 168
CCCN1CCO[C@@H]2c3cc4c(=O)n(OC)ccc4cc3CC[C@H]21	142 to 145
CC12CCC(O)CC1CCC1C2CCC2(CN3CCOCC3)C(O)C(N3CCCC3)CC12 (centres undefined)	218
C1=C(c2ccccc2)CCN(C2CC=C(c3ccccn3)CC2)C1 (centres undefined)	143 to 144
CN1Cc2c(-c3nc(CN4Cc5ccccc5C4)no3)ncn2-c2ccccc2C1=O	155 to 160
